Test results taken from patent EP2692332A2, “Composition for the treatment of callus, corns, moles, telangiectasias, and psoriasis” (Unigroup ApS, priority 2012, dated 2014).

Format: physicochemical
Details: at higher concentrations than salicylic acid

Structure (SMILES): O=CO [formic acid]
- miscibility with ethyl lactate: miscible
